Test results: patent US11840528B2 (Hoffmann-La Roche Inc., priority 2018, dated 2023)

Columns and labels:
h-GABA-A α5β3γ2 [1] = biological target: T1, h-GABA-A α5β3γ2 (Homo sapiens, UniProt P18507+P31644); assay: [3H]flumazenil competition binding assay, membranes of HEK293 cells expressing GABAA receptors
Method in brief: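 Receptor source: human α5β3γ2 transiently transfected into HEK293 cells, membranes in pH 7.5 Krebs-tris. Filtration through GF/C, then scintillation counting.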

h-GABA-A α5β3γ2 [2] = biological target: T1, h-GABA-A α5β3γ2; assay: Two-electrode voltage clamp electrophysiology in Xenopus laevis oocytes expressing GABAA receptors, modulation of GABA EC20 current; type: cell-based; set-up: host or cells: Xenopus laevis oocytes micro-injected with RNA transcripts of the subunits
Method in brief: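 Modulation is reported as % of the GABA EC20 current, calculated as 100*(Fold increase−1) from the peak ratio between a second GABA response carrying compound (applied at roughly 30-fold Ki) and a preceding control response. Oocytes expressing human α5β3γ2 were clamped at −80 mV at room temperature, 3–5 days after injection.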

[3] = displacement of [3H]-Flumazenil 0.5 nM, HEK293 cells expressing human receptors, mean of two determinations, Table 1
[4] = % modulation of GABA EC20 = 100*(Fold increase-1), Table 1
[5] = test compound at approx. 30 fold its Ki, GABA at EC20, Table 1

SMILES	Ki (h-GABA-A α5β3γ2 [1]; [3]) [nM]	Efficacy (GABA) % (h-GABA-A α5β3γ2 [2]; [4]) [%]	Fold increase h-GABA-A α5β3γ2 oocyte (h-GABA-A α5β3γ2 [2]; [5])	Ki (h-GABA-A α5β3γ2 [1]; reference compounds, Table 2) [nM]	Efficacy (GABA) % (h-GABA-A α5β3γ2 [2]; reference compounds, % modulation of GABA EC20, Table 2) [%]	Fold increase h-GABA-A α5β3γ2 oocyte (h-GABA-A α5β3γ2 [2]; reference compounds, Table 2)
Cc1onc(-c2ccccc2)c1COc1ccc(N2CCCC2)nn1 [RO-035, reference compound]	–	–	–	10.5	−35	0.65
Cc1ccc(-c2noc(C)c2Cn2ncc(N3C4COCC3C4)cc2=O)cn1 [Example 33, 2-[[5-methyl-3-(6-methyl-3-pyridyl)isoxazol-4-yl]methyl]-5-(3-oxa-6-azabicyclo[3.1.1]heptan-6-yl)pyridazin-3-one]	3.2	150	2.5	–	–	–
Cc1ccc(-c2noc(C)c2Cn2ncc(N3CC4(CC(C(F)(F)F)CCO4)C3)cc2=O)nn1 (single isomer, unassigned) [Example 312]	6.5	127	2.27	–	–	–
Cc1ccc(-c2noc(C)c2Cn2ncc(N3CC4(CCC(F)CO4)C3)cc2=O)cn1 (single isomer, unassigned) [Example 275]	4.6	89	1.89	–	–	–
Cc1ccc(-c2noc(C)c2Cn2ncc(N3CC(OC(C)(C)C(F)(F)F)C3)cc2=O)nn1 [Example 264, 2-[[5-methyl-3-(6-methylpyridazin-3-yl)isoxazol-4-yl]methyl]-5-[3-(2,2,2-trifluoro-1,1-dimethyl-ethoxy)azetidin-1-yl]pyridazin-3-one]	3	93	1.93	–	–	–
Cc1cc(-c2noc(C)c2Cn2ncc(N3CC4(CCCO4)C3)cc2=O)no1 [Example 142, 2-[[5-methyl-3-(5-methylisoxazol-3-yl)isoxazol-4-yl]methyl]-5-(5-oxa-2-azaspiro[3.4]octan-2-yl)pyridazin-3-one]	15.4	48	1.48	–	–	–
Cc1ccc(-c2noc(C)c2Cn2ncc(N3CCC4(CC3)COC4)cc2=O)cn1 [Example 46, 2-[[5-methyl-3-(6-methyl-3-pyridyl)isoxazol-4-yl]methyl]-5-(2-oxa-7-azaspiro[3.5]nonan-7-yl)pyridazin-3-one]	15.2	107	2.07	–	–	–
Cc1onc(-c2ccc(Cl)nc2)c1Cn1ncc(N2CCC3(CCCO3)CC2)cc1=O [Example 256, 2-((3-(6-chloropyridin-3-yl)-5-methylisoxazol-4-yl)methyl)-5-(1-oxa-8-azaspiro[4.5]decan-8-yl)pyridazin-3(2H)-one]	45.4	126	2.26	–	–	–
Cc1onc(-c2ccc(Cl)nc2)c1Cn1ncc(N2CCN(c3cccnc3)CC2)cc1=O [Example 278, 2-((3-(6-chloropyridin-3-yl)-5-methylisoxazol-4-yl)methyl)-5-(4-(pyridin-3-yl)piperazin-1-yl)pyridazin-3(2H)-one]	8	108	2.08	–	–	–
Cc1ccc(-c2noc(C)c2Cn2ncc(N3CCC(n4c(C)nnc4C)CC3)cc2=O)cn1 [Example 54, 5-[4-(3,5-dimethyl-1,2,4-triazol-4-yl)-1-piperidyl]-2-[[5-methyl-3-(6-methyl-3-pyridyl)isoxazol-4-yl]methyl]pyridazin-3-one]	10.8	175	2.75	–	–	–
Cc1ccc(-c2noc(C)c2Cn2ncc(N3CC4(CCCCCO4)C3)cc2=O)nn1 [Example 316, 2-[[5-methyl-3-(6-methylpyridazin-3-yl)isoxazol-4-yl]methyl]-5-(5-oxa-2-azaspiro[3.6]decan-2-yl)pyridazin-3-one]	4.3	100	2	–	–	–

The remaining lines, values ahead:

Ki (h-GABA-A α5β3γ2 [1]; [3]) [nM]	Efficacy (GABA) % (h-GABA-A α5β3γ2 [2]; [4]) [%]	Fold increase h-GABA-A α5β3γ2 oocyte (h-GABA-A α5β3γ2 [2]; [5])	Ki (h-GABA-A α5β3γ2 [1]; reference compounds, Table 2) [nM]	Efficacy (GABA) % (h-GABA-A α5β3γ2 [2]; reference compounds, % modulation of GABA EC20, Table 2) [%]	Fold increase h-GABA-A α5β3γ2 oocyte (h-GABA-A α5β3γ2 [2]; reference compounds, Table 2)	SMILES
4.3	222	3.22	–	–	–	Cc1ccc(-c2noc(C)c2Cn2ncc(N3CCC(C#N)CC3)cc2=O)cn1 [Example 34, 1-[1-[[5-methyl-3-(6-methyl-3-pyridyl)isoxazol-4-yl]methyl]-6-oxo-pyridazin-4-yl]piperidine-4-carbonitrile]
33.4	103	2.03	–	–	–	Cc1ccc(-c2noc(C)c2Cn2ncc(NCC3CCOCC3)cc2=O)cn1 [Example 88, 2-((5-methyl-3-(6-methylpyridin-3-yl)isoxazol-4-yl)methyl)-5-(((tetrahydro-2H-pyran-4-yl)methyl)amino)pyridazin-3(2H)-one]
3.7	98	1.98	–	–	–	CCc1cc(-c2cnn(Cc3c(-c4ccc(C)nc4)noc3C)c(=O)c2)ccn1 [Example 196, 5-(2-ethyl-4-pyridyl)-2-((5-methyl-3-(6-methyl-3-pyridyl)isoxazol-4-yl)methyl)pyridazin-3-one]
6.4	221	3.21	–	–	–	Cc1ccc(-c2noc(C)c2Cn2ncc(-c3cc(C)nc(C)c3)cc2=O)cn1 [Example 192, 5-(2,6-dimethylpyridin-4-yl)-2-((5-methyl-3-(6-methylpyridin-3-yl)isoxazol-4-yl)methyl)pyridazin-3(2H)-one]
19.3	132	2.32	–	–	–	COC1CCN(c2cnn(Cc3c(-c4ccc(C)nc4)noc3C)c(=O)c2)CC1 [Example 139, 5-(4-methoxy-1-piperidyl)-2-[[5-methyl-3-(6-methyl-3-pyridyl)isoxazol-4-yl]methyl]pyridazin-3-one]
29.7	141	2.41	–	–	–	Cc1ccc(-c2noc(C)c2Cn2ncc(-c3cnn(C)c3)cc2=O)cn1 [Example 103, 2-((5-methyl-3-(6-methyl-3-pyridyl)isoxazol-4-yl)methyl)-5-(1-methylpyrazol-4-yl)pyridazin-3-one]
5.9	126	2.26	–	–	–	COc1cc(-c2cnn(Cc3c(-c4ccc(C)nc4)noc3C)c(=O)c2)c(F)cn1 [Example 191, 5-(5-fluoro-2-methoxypyridin-4-yl)-2-((5-methyl-3-(6-methylpyridin-3-yl)isoxazol-4-yl)methyl)pyridazin-3(2H)-one]
16.1	111	2.11	–	–	–	CCOc1ccc(-c2cnn(Cc3c(-c4ccc(C)nc4)noc3C)c(=O)c2)cc1 [Example 79, 5-(4-ethoxyphenyl)-2-((5-methyl-3-(6-methylpyridin-3-yl)isoxazol-4-yl)methyl)pyridazin-3(2H)-one]
28.1	119	2.19	–	–	–	CCO[C@H]1COC2(C1)CN(c1cnn(Cc3c(-c4ccc(C)nc4)noc3C)c(=O)c1)C2 [Example 135, 5-[(7R)-7-ethoxy-5-oxa-2-azaspiro[3.4]octan-2-yl]-2-[[5-methyl-3-(6-methyl-3-pyridyl)isoxazol-4-yl]methyl]pyridazin-3-one]
4.5	198	2.98	–	–	–	Cc1ccc(-c2noc(C)c2Cn2ncc(N3CC(Oc4ccncc4)C3)cc2=O)cn1 [Example 129, 2-[[5-methyl-3-(6-methyl-3-pyridyl)isoxazol-4-yl]methyl]-5-[3-(4-pyridyloxy)azetidin-1-yl]pyridazin-3-one]
